# Test results as given in patent US6355799B1, “Substituted benzene compounds, process for their preparation, and herbicidal and defoliant compositions containing them” (ISK Americas Incorporated, priority 1997, dated 2002).
# What was measured:
# Type in all cases: in vivo
# [1] = system: velvetleaf (Abutilon theophrasti, ABUTH); assay: Post-emerge test, greenhouse herbicide activity screening; details: rating scale 0-100 (0 no damage, 100 complete death), 14 days after application
# How it was run: (§1)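 Plants grown in 10 cm pots of sandy loam mix received acetone-dissolved compounds through a moving flat-fan nozzle. Doses ranged from 15 to 1000 g ai/ha. Pre-emerge pots were seeded one day earlier, post-emerge pots 8–21 days earlier. Fourteen days on, each pot was graded 0–100 for damage.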
# [2] = system: redroot pigweed (Amaranthus retroflexus, AMARE); assay: as above; details: rating scale 0-100 (0 no damage, 100 complete death), 14 days after application
# How it was run: as §1
# [3] = system: barnyardgrass (Echinochloa crus-galli, ECHCG); assay: as above; details: rating scale 0-100 (0 no damage, 100 complete death), 14 days after application
# How it was run: as §1
# [4] = system: lambsquarters (Chenopodium album, CHEAL); assay: as above; details: rating scale 0-100 (0 no damage, 100 complete death), 14 days after application
# How it was run: as §1
# [5] = system: sicklepod (Cassia obtusifolia, CASOB); assay: as above; details: rating scale 0-100 (0 no damage, 100 complete death), 14 days after application
# How it was run: as §1
# [6] = system: ivyleaf morningglory (Ipomoea hederacea, IPOHE); assay: as above; details: rating scale 0-100 (0 no damage, 100 complete death), 14 days after application
# How it was run: as §1
# [7] = system: large crabgrass (Digitaria sanguinalis, DIGSA); assay: as above; details: rating scale 0-100 (0 no damage, 100 complete death), 14 days after application
# How it was run: as §1
# [8] = system: johnsongrass (Sorghum halepense, SORHA); assay: as above; details: rating scale 0-100 (0 no damage, 100 complete death), 14 days after application
# How it was run: as §1
# [9] = system: green foxtail (Setaria viridis, SETVI); assay: as above; details: rating scale 0-100 (0 no damage, 100 complete death), 14 days after application
# How it was run: as §1
# [10] = system: field corn (Zea mays L., var. Dekalb 535, CORN); assay: Post-emerge test, crop safety; details: rating scale 0-100 (0 no damage, 100 complete death), 14 days after application
# How it was run: (§2)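 Rating: 0–100 visual injury, 14 DAA. Application: acetone, 187 l/ha, 15–1000 g ai/ha, flat-fan track sprayer with nozzle 40–45 cm above soil or canopy. Post-emerge runs used 0.25% v/v surfactant on 2–3 leaf plants.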
# [11] = system: upland rice (Oryza sp., var. Tebonnet, RICE); assay: Post-emerge test, crop safety; details: rating scale 0-100 (0 no damage, 100 complete death), 14 days after application
# How it was run: as §2
# [12] = system: velvetleaf (Abutilon theophrasti, ABUTH); assay: Pre-emerge test, greenhouse herbicide activity screening; details: rating scale 0-100, 14 days after application
# How it was run: (§3)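 Compounds in acetone were track-sprayed at 15–1000 g ai/ha: pre-emergence onto soil sown the previous day, then top-watered to incorporate and later bottom-watered; post-emergence onto 2–3 leaf plants with 0.25% v/v surfactant, bottom-watered only. Ratings on a 0–100 phytotoxicity scale were taken at day 14.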
# [13] = system: barnyardgrass (Echinochloa crus-galli, ECHCG); assay: as above; details: rating scale 0-100, 14 days after application
# How it was run: as §3
# [14] = system: lambsquarters (Chenopodium album, CHEAL); assay: as above; details: rating scale 0-100, 14 days after application
# How it was run: as §3
# [15] = system: sicklepod (Cassia obtusifolia, CASOB); assay: as above; details: rating scale 0-100, 14 days after application
# How it was run: as §3
# [16] = system: ivyleaf morningglory (Ipomoea hederacea, IPOHE); assay: as above; details: rating scale 0-100, 14 days after application
# How it was run: as §3
# [17] = system: large crabgrass (Digitaria sanguinalis, DIGSA); assay: as above; details: rating scale 0-100, 14 days after application
# How it was run: as §3
# [18] = system: johnsongrass (Sorghum halepense, SORHA); assay: as above; details: rating scale 0-100, 14 days after application
# How it was run: as §3
# [19] = system: green foxtail (Setaria viridis, SETVI); assay: as above; details: rating scale 0-100, 14 days after application
# How it was run: as §3
# [20] = system: field corn (Zea mays L., var. Dekalb 535, CORN); assay: Pre-emerge test, crop safety; details: rating scale 0-100, 14 days after application
# How it was run: (§4)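 Visual ratings on a 0-100 scale (0 no damage, 100 all plants dead) were taken at 14 days after treatment. Rates of 15-1000 g ai/ha in acetone, 187 l/ha, were sprayed onto soil one day after planting (pre-emerge) or onto 2-3 leaf plants with 0.25% v/v surfactant (post-emerge).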
# [21] = system: upland rice (Oryza sp., var. Tebonnet, RICE); assay: Pre-emerge test, crop safety; details: rating scale 0-100, 14 days after application
# How it was run: as §4
# [22] = system: redroot pigweed (Amaranthus retroflexus, AMARE); assay: Pre-emerge test, greenhouse herbicide activity screening; details: rating scale 0-100, 14 days after application
# How it was run: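 Herbicidal damage is scored 0 (none) to 100 (complete plant death) two weeks after a simulated field spray. Rates span 15–1000 g ai/ha, delivered in acetone at 187 l/ha. For post-emergence treatments, plants have 2–3 leaves and the spray carries 0.25% v/v non-ionic surfactant.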
compound,measurement,setting,value
"COc1c(Cl)cc(F)c(-n2c(=O)cc(C(F)(F)F)n(C)c2=O)c1CC(Cl)C(=O)OCCOc1ccccc1 (single isomer, unassigned) [14-27]","Post-emerge Herbicidal Activity, phytotoxicity rating ABUTH",[1]; Rate 63 g ai/ha,70
same,"Post-emerge Herbicidal Activity, phytotoxicity rating ABUTH",[1]; Rate 250 g ai/ha,80
same,"Post-emerge Herbicidal Activity, phytotoxicity rating AMARE",[2]; Rate 63 g ai/ha,50
same,"Post-emerge Herbicidal Activity, phytotoxicity rating AMARE",[2]; Rate 250 g ai/ha,90
same,"Post-emerge Herbicidal Activity, phytotoxicity rating ECHCG",[3]; Rate 63 g ai/ha,99
same,"Post-emerge Herbicidal Activity, phytotoxicity rating ECHCG",[3]; Rate 250 g ai/ha,100
same,"Post-emerge Herbicidal Activity, phytotoxicity rating CHEAL",[4]; Rate 63 g ai/ha,90
same,"Post-emerge Herbicidal Activity, phytotoxicity rating CHEAL",[4]; Rate 250 g ai/ha,100
same,"Post-emerge Herbicidal Activity, phytotoxicity rating CASOB",[5]; Rate 63 g ai/ha,50
same,"Post-emerge Herbicidal Activity, phytotoxicity rating CASOB",[5]; Rate 250 g ai/ha,30
same,"Post-emerge Herbicidal Activity, phytotoxicity rating IPOHE",[6]; Rate 63 g ai/ha,70
same,"Post-emerge Herbicidal Activity, phytotoxicity rating IPOHE",[6]; Rate 250 g ai/ha,50
same,"Post-emerge Herbicidal Activity, phytotoxicity rating DIGSA",[7]; Rate 63 g ai/ha,70
same,"Post-emerge Herbicidal Activity, phytotoxicity rating DIGSA",[7]; Rate 250 g ai/ha,95
same,"Post-emerge Herbicidal Activity, phytotoxicity rating SORHA",[8]; Rate 63 g ai/ha,0
same,"Post-emerge Herbicidal Activity, phytotoxicity rating SORHA",[8]; Rate 250 g ai/ha,10
same,"Post-emerge Herbicidal Activity, phytotoxicity rating SETVI",[9]; Rate 63 g ai/ha,0
same,"Post-emerge Herbicidal Activity, phytotoxicity rating SETVI",[9]; Rate 250 g ai/ha,20
same,Post-emerge phytotoxicity rating CORN (crop damage),[10]; Rate 63 g ai/ha,5
same,Post-emerge phytotoxicity rating CORN (crop damage),[10]; Rate 250 g ai/ha,10
same,Post-emerge phytotoxicity rating RICE (crop damage),[11]; Rate 63 g ai/ha,0
same,Post-emerge phytotoxicity rating RICE (crop damage),[11]; Rate 250 g ai/ha,0
same,"Pre-emerge herbicidal activity, phytotoxicity rating ABUTH",[12]; 63 g ai/ha,0
same,"Pre-emerge herbicidal activity, phytotoxicity rating ABUTH",[12]; 250 g ai/ha,30
same,"Pre-emerge herbicidal activity, phytotoxicity rating ECHCG",[13]; 63 g ai/ha,0
same,"Pre-emerge herbicidal activity, phytotoxicity rating ECHCG",[13]; 250 g ai/ha,0
same,"Pre-emerge herbicidal activity, phytotoxicity rating CHEAL",[14]; 63 g ai/ha,0
same,"Pre-emerge herbicidal activity, phytotoxicity rating CHEAL",[14]; 250 g ai/ha,90
same,"Pre-emerge herbicidal activity, phytotoxicity rating CASOB",[15]; 63 g ai/ha,0
same,"Pre-emerge herbicidal activity, phytotoxicity rating CASOB",[15]; 250 g ai/ha,0
same,"Pre-emerge herbicidal activity, phytotoxicity rating IPOHE",[16]; 63 g ai/ha,0
same,"Pre-emerge herbicidal activity, phytotoxicity rating IPOHE",[16]; 250 g ai/ha,0
same,"Pre-emerge herbicidal activity, phytotoxicity rating DIGSA",[17]; 63 g ai/ha,0
same,"Pre-emerge herbicidal activity, phytotoxicity rating DIGSA",[17]; 250 g ai/ha,90
same,"Pre-emerge herbicidal activity, phytotoxicity rating SORHA",[18]; 63 g ai/ha,0
same,"Pre-emerge herbicidal activity, phytotoxicity rating SORHA",[18]; 250 g ai/ha,0
same,"Pre-emerge herbicidal activity, phytotoxicity rating SETVI",[19]; 63 g ai/ha,0
same,"Pre-emerge herbicidal activity, phytotoxicity rating SETVI",[19]; 250 g ai/ha,0
same,"Pre-emerge phytotoxicity rating, crop damage CORN",[20]; 63 g ai/ha,0
same,"Pre-emerge phytotoxicity rating, crop damage CORN",[20]; 250 g ai/ha,0
same,"Pre-emerge phytotoxicity rating, crop damage RICE",[21]; 63 g ai/ha,0
same,"Pre-emerge phytotoxicity rating, crop damage RICE",[21]; 250 g ai/ha,0
same,"Pre-emerge herbicidal activity, phytotoxicity rating AMARE",[22]; 63 g ai/ha,50
same,"Pre-emerge herbicidal activity, phytotoxicity rating AMARE",[22]; 250 g ai/ha,100
